How the values were obtained:
[1] = (§1) Intrinsic clearance in rat liver microsomes assessed per mg of protein; type: ADME, Microsome; details: liver microsomes
[2] = system: Human immunodeficiency virus 1; assay: Antiviral activity against recombinant HIV1 virus infected in human JC53BL cells after 3 days; type: functional, organism-based; details: Human immunodeficiency virus 1, JC53BL, 72 h
[3] = Permeability from apical to basolateral side of the human 21 days cultured Caco-2 cells; type: ADME, cell-based; details: read-out: permeability
[4] = Efflux ratio of permeability from basolateral to apical to apical to basolateral side in human 21 days cultured Caco-2 cells; type: ADME, cell-based
[5] = (§2) Intrinsic clearance in human liver microsomes assessed per mg of protein; type: ADME, Microsome; details: liver microsomes
[6] = target: C-C chemokine receptor type 5 (Homo sapiens, UniProt P51681); assay: Displacement of [125I]RANTES from human CCR5 receptor co-transfected with Galphai6 in CHO cells; type: cell-based
C-C chemokine receptor type 5, sequence (P51681 whole entry): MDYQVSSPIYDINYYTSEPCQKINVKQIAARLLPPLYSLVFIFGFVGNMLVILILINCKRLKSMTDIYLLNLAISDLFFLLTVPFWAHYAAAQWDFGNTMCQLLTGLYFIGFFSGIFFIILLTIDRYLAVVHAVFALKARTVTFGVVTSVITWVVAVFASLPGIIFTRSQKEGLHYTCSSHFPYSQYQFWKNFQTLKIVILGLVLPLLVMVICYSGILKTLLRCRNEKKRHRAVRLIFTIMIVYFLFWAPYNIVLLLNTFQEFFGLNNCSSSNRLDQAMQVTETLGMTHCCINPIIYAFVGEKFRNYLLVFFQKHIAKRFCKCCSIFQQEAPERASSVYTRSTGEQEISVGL

[7] = organism: Homo sapiens; assay: Hepatic blood flow in human; type: ADME, organism-based, Liver
[8] = system: Liver microsomes; assay: as §1; type: ADME, Microsome; details: microsomes
[9] = Oral bioavailability in rat at 10 mg/kg; type: ADME, organism-based; details: in vivo
[10] = system: Liver microsomes; assay: as §2; type: ADME, Microsome; details: microsomes

| Structure (SMILES) | IC50 [2] [nM] | microsomal CLint [5] [µL/min/mg] | IC50 [6] [nM] | also measured |
| --- | --- | --- | --- | --- |
| CCCCC1N(CC2CCCCC2)C(=O)OC12CCN(C1(C)CCN(C(=O)c3c(C)ncnc3C)CC1)CC2 (centres undefined) | 46 | 162 | 7 |  |
| CCCCC1N(CC2CCCCC2)C(=O)OC12CCN(C1CCN(C(=O)c3ccccc3C)CC1)CC2 (centres undefined) | > 625 |  | 100 |  |
| CCCCC1N(CC2CCCC2)C(=O)OC12CCN(C1CCN(C(=O)c3c(C)cccc3C)CC1)CC2 (centres undefined) | > 625 |  | 18 |  |
| CCCCC1CN(CC2CCCCC2)C(=O)OC12CCN(C1CCN(C(=O)c3c(C)ncnc3C)CC1)CC2 (centres undefined) | 31 |  | 68 | LBF [7]: 82%; clearance [8]: 80 µL/min/mg; bioavailability [9]: 43%; clearance [10]: 119 µL/min/mg |
| CCCCC1CN(CC2CCOCC2)C(=O)OC12CCN(C1CCN(C(=O)c3c(C)cccc3C)CC1)CC2 (centres undefined) | 24 | 164 | 89 |  |
| CCCCC1CN(CC2CCOCC2)C(=O)OC12CCN(C1CCN(C(=O)c3c(C)ncnc3C)CC1)CC2 (centres undefined) | 405 |  | 76 |  |
| CCCCC1N(CC2CCOCC2)C(=O)OC12CCN(C1CCN(C(=O)c3c(C)cccc3C)CC1)CC2 (centres undefined) | > 625 |  | 24 |  |
| CCCC[C@@H]1CN(CC2CCOCC2)C(=O)OC12CCN(C1(C)CCN(C(=O)c3c(C)ncnc3C)CC1)CC2 | > 625 | 17 | 100 |  |
| CCCC[C@H]1CN(CC2CCCCO2)C(=O)OC12CCN(C1(C)CCN(C(=O)c3c(C)ccnc3C)CC1)CC2 (some centres undefined) | 55 | 53 | 10 |  |
| CCCC[C@H]1CN(C2CCOCC2)C(=O)OC12CCN(C1(C)CCN(C(=O)c3c(C)ncnc3C)CC1)CC2 | 84 |  |  |  |
| CCCCC1N(Cc2ccccc2)C(=O)OC12CCN(C1CCN(C(=O)c3c(C)cccc3C)CC1)CC2 (centres undefined) | > 625 |  | 144 |  |
| CCCC1N(CC2CCCCC2)C(=O)OC12CCN(C1CCN(C(=O)c3c(C)cccc3C)CC1)CC2 (centres undefined) | > 625 |  | 300 |  |
| CCCCC1N(CC2CCOCC2)C(=O)OC12CCN(C1(C)CCN(C(=O)c3c(C)ncnc3C)CC1)CC2 (centres undefined) | 375 | 27 | 58 | Papp A→B [3]: 0.6 ×10⁻⁶ cm/s; efflux ratio [4]: 31 |
| CCCC[C@H]1CN(CC2CCOCC2)C(=O)OC12CCN(C1(C)CCN(C(=O)c3c(C)cc[n+]([O-])c3C)CC1)CC2 | 52 |  | 80 |  |
| CCCCC1CN(CC2CCCCC2)C(=O)OC12CCN(C1CCN(C(=O)c3c(C)cccc3C)CC1)CC2 (centres undefined) | 29 | 307 | 30 |  |
| CCCCC1N(CC2CCCCC2)C(=O)OC12CCN(C1CCN(C(=O)c3c(C)cccc3C)CC1)CC2 (centres undefined) | 125 | 675 | 51 | microsomal CLint [1]: 2000 µL/min/mg |

The next molecules have a lower IC50 [2] than those just listed; values first:

| IC50 [2] [nM] | microsomal CLint [5] [µL/min/mg] | IC50 [6] [nM] | Structure (SMILES) | also measured |
| --- | --- | --- | --- | --- |
| < 1.2 | 526 | 10 | CCCCC1N(CC2CCCCC2)C(=O)OC12CCN(C1(C)CCN(C(=O)c3c(C)cccc3C)CC1)CC2 (centres undefined) | microsomal CLint [1]: 523 µL/min/mg; Papp A→B [3]: 14 ×10⁻⁶ cm/s; efflux ratio [4]: 0.4 |
| 3 | 36 | 12 | CCCC[C@H]1CN(CC2CCOCC2)C(=O)OC12CCN(C1(C)CCN(C(=O)c3c(C)cc(=O)oc3C)CC1)CC2 |  |
| 3 | 46 | 97 | CCCC[C@H]1CN(CC2CCOCC2)C(=O)OC12CCN(C1(C)CCN(C(=O)c3c(C)nc(C(F)(F)F)nc3C)CC1)CC2 |  |
| 2 | 106 | 27 | CCCC[C@H]1CN(CC2CCC(F)(F)CC2)C(=O)OC12CCN(C1(C)CCN(C(=O)c3c(C)ncnc3C)CC1)CC2 |  |
| 14 | 17 | 25 | CCCCC1CN(CC2CCOCC2)C(=O)OC12CCN(C1(C)CCN(C(=O)c3c(C)ncnc3C)CC1)CC2 (centres undefined) |  |
| 8 | 37 |  | CCCC[C@H]1CN(CCC2CCOCC2)C(=O)OC12CCN(C1(C)CCN(C(=O)c3c(C)ncnc3C)CC1)CC2 |  |
| 4 | 33 | 61 | CCCC[C@H]1CN(CC2CCOCC2)C(=O)OC12CCN(C1(C)CCN(C(=O)c3c(C)ccnc3C)CC1)CC2 |  |
| 12 | 28 | 22 | CCCC[C@H]1CN(C)C(=O)OC12CCN(C1(C)CCN(C(=O)c3c(C)cc(C#N)nc3C)CC1)CC2 |  |
| 4 | 42 | 24 | CCCCC1CN(CC2CCOCC2)C(=O)OC12CCN(C1(C)CCN(C(=O)c3c(C)cc(C#N)nc3C)CC1)CC2 (racemic) |  |

— ChEMBL document CHEMBL1154224, “Spiropiperidine CCR5 antagonists” (Bioorg Med Chem Lett, 2009)
